Several values for one entry are separate records, joined by “and”; a condition that tells them apart may be missing. Equal values may be shown once.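 Interpolation was linear, between the two tested concentrations surrounding the appropriate level; five concentrations were tested over 48 hours in 96-well plates. At the TGI there is no net growth.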
Tests used:
Test in all cases: NCI anticancer screen, dose series, 48 h
SNB-78 CNS = test system: SNB-78 CNS
XF 498 CNS = test system: XF 498 CNS
DMS 114 small cell lung = test system: DMS 114 small cell lung
KM20L2 colon = test system: KM20L2 colon
DMS 273 small cell lung = test system: DMS 273 small cell lung
RXF-631 renal = test system: RXF-631 renal

| Compound | TGI (SNB-78 CNS) [µM] | TGI (XF 498 CNS) [µM] | TGI (DMS 114 small cell lung) [µM] | TGI (KM20L2 colon) [µM] | TGI (DMS 273 small cell lung) | TGI (RXF-631 renal) [µM] |
| --- | --- | --- | --- | --- | --- | --- |
| O=C(NN1C(=O)C(Cl)C1c1ccccc1Cl)c1ccccc1O (stereo not drawn) | > 100 | > 100 | > 100 | – | – | – |
| COc1ccc(CCCN2c3ccccc3Sc3ccccc32)cc1 | > 100 | > 100 | > 100 | > 100 | > 100 µM | – |
| N#Cc1cc([N+](=O)[O-])ccc1NC(=O)C(=O)C(C(=O)c1ccc2ccccc2c1)C1OCc2ccccc21 (stereo not drawn) | 35.2 | – | 29.7 | 42.6 | – | 37.5 |
| Cc1ccc(NC(=O)/C(=N/NC(=O)C[N+](C)(C)C)c2nc3ccccc3[nH]c2=O)cc1 | > 100 | – | > 100 | > 100 | > 100 µM | > 100 |
| COc1cc2c(c(OC)c1OC)-c1ccc(SC)c(=O)cc1[C@@H](NCc1cccc([N+](=O)[O-])c1)CC2 | > 100 | – | – | < 0.01 | – | – |
| CCOC(OCC)C(CC)[Se]c1ccccc1 (stereo not drawn) | > 100 | > 100 | 8.89 | 38.2 | 28.4 µM | > 100 |
| COc1ccc(C2=C(Cl)c3cc(OC)c(OC)cc3C2)cc1OC | > 100 | > 100 | > 100 | > 100 | > 100 µM | – |
| CCCC(=O)c1ccc(=O)n(C)c1 | – | > 100 | > 100 | > 100 | > 100 µM | > 100 |
| Cn1nc2ccc3nccc(NCCNCCO)c3c2n1 | > 100 | > 100 | – | > 100 | – | – |
| COc1cc(C(O)C(=O)c2cnc3cc([N+](=O)[O-])ccc3n2)ccc1O (stereo not drawn) | – | > 100 | > 100 | > 100 | > 100 µM | > 100 |
| Cn1cnc(SC2=C3C(=O)C=C4S[C@H]5C[C@]42c2c(c(O)c4c6c2=[N+]3CCC=6C=N4)N5)c1CC(N)C(=O)O (stereo partly drawn) | 40.9 | 28.7 | 6.11 | 16.6 | 26 µM | – |
| COc1cc2c(c(OC)c1OC)-c1ccc(SC)c(=O)cc1[C@@H](NC(=O)c1ccc([N+](=O)[O-])cc1)CC2 | 25 | 25 | 0.89 | – | 25 µM and > 100 µM | > 100 |
| CN(C(=O)C12C3C4C1C1C2C3C41C(O)C(C)(C)C)C(C)(C)C (stereo not drawn) | > 100 | > 100 | > 100 | > 100 | > 100 µM | > 100 |
| CCOc1ccc(NCC2CC/C(=C\c3ccc(Cl)cc3)C2=O)cc1 (stereo not drawn) | > 100 | 37.1 | > 58.9 | > 55.8 | > 54.1 µM | – |
| C[N+](C)(C)CC(CC(=O)[O-])C1CC1 (stereo not drawn) | – | > 100 | > 100 | > 100 | > 100 µM | > 100 |
| COc1ccc(N=Nc2c(-c3ccccc3)nn(C(=O)CC(=O)Nc3ccccc3Cl)c2-c2ccccc2)cc1 | > 100 | – | > 100 | > 100 | > 100 µM | > 100 |
| CC(=O)OCCOCNC(=S)N/N=C(\C)c1cccs1 | > 100 | > 100 | > 100 | > 100 | > 100 µM | – |
| c1ccc2c(c1)Sc1ccccc1N2C1CN2CCC1CC2 (stereo not drawn) | 30 | 28.8 | 35.3 | 30.2 | 30.7 µM | – |
| CC1=NN(C(=O)Cc2ccccc2)C(=O)/C1=C\c1ccccc1O | > 100 | > 100 | > 100 | > 100 | – | – |

From PubChem BioAssay (NCI)
